One experiment has as its target Bcl-2 protein (Homo sapiens (Human), UniProt P10415). Nature of the experiment: Inhibition of Bcl-2 by the fluorescence polarisation technique. Conditions: fluorescence polarisation test; concentration that inhibits fluorescence polarisation by 50%; read-out: IC50 (nM) Bcl-2 FP. The experiment is classed as binding. Here is the method: The fluorescence polarisation tests were carried out on microplates (384 wells). […] After incubation for 2 hours, the fluorescence polarisation is measured.
Background: Polarisation of emitted light reports the rotation of a fluorescent probe.

Experiment [1] concerns RS4;11 leukaemia tumour line. Nature of the experiment: In vitro cytotoxicity (Microculture Tetrazolium Assay, 48 hours). Conditions: Homo sapiens, RS4;11 cells, 48 hours exposure, MTT, concentration that inhibits cell viability by 50%, read-out: IC50 (nM) MTT RS4. In kind it is cell-based. Here is the method: The cytotoxicity studies were carried out on the RS4;11 leukaemia tumour line.
The cells are distributed onto microplates and exposed to the test compounds for 48 hours.

Each structure is given as a SMILES string. Counter-ions that a name gives are not always drawn.

Sequence of Bcl-2 protein (P10415 whole entry): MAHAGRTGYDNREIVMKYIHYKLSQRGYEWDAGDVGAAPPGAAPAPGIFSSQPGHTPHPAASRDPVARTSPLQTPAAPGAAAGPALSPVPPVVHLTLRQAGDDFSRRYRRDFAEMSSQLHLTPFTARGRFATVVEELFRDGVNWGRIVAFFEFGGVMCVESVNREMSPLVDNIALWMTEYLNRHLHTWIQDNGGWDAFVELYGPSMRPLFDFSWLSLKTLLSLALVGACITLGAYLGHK

On to `Cn1ncc2cc(N(C(=O)c3cc(-c4cc5c(cc4C(=O)N4Cc6ccccc6C[C@H]4CN4CCOCC4)OCCO5)n4c3CCCC4)c3ccc(O)cc3)ccc21` [Example 39, N-(4-Hydroxyphenyl)-N-(1-methyl-1H-indazol-5-yl)-3-{7-[((3S)-3-(4-morpholinylmethyl)-3,4-dihydro-2(1H)-isoquinolinyl)carbonyl]-2,3-dihydro-1,4-benzodioxin-6-yl}-5,6,7,8-tetrahydro-1-indolizine carboxamide hydrochloride], for which the half-maximal inhibitory concentration (IC50) at Bcl-2 protein stood at 16 nM; in experiment [1], 14.1 nM.
On to `CN1CCCc2cc(N(C(=O)c3cc(-c4cc5c(cc4C(=O)N4Cc6ccccc6C[C@H]4CN4CCOCC4)OCCO5)n4c3CCCC4)c3ccc(O)cc3)ccc21` [Example 40, N-(4-Hydroxyphenyl)-N-(1-methyl-1,2,3,4-tetrahydro-6-quinolinyl)-3-{7-[((3S)-3-(4-morpholinylmethyl)-3,4-dihydro-2(1H)-isoquinolinyl)carbonyl]-2,3-dihydro-1,4-benzodioxin-6-yl}-5,6,7,8-tetrahydro-1-indolizine carboxamide hydrochloride], for which the results for the IC50 (on Bcl-2 protein; in experiment [1]) were 15 nM and 32.2 nM, respectively.
As for `CN1CCOc2cc(N(C(=O)c3cc(-c4cc5c(cc4C(=O)N4Cc6ccccc6C[C@H]4CN4CCOCC4)OCCO5)n4c3CCCC4)c3ccc(O)cc3)ccc21` [Example 41, N-(4-Hydroxyphenyl)-N-(4-methyl-3,4-dihydro-2H-1,4-benzoxazin-7-yl)-3-{7-[((3S)-3-(4-morpholinylmethyl)-3,4-dihydro-2(1H)-isoquinolinyl)carbonyl]-2,3-dihydro-1,4-benzodioxin-6-yl}-5,6,7,8-tetrahydro-1-indolizine carboxamide hydrochloride], the half-inhibitory concentration (IC50) on Bcl-2 protein was 26 nM; in experiment [1] it was 44 nM.
In the same order, the values of `Cn1ncc2cc(N(C(=O)c3cc(-c4cc(Cl)ccc4C(=O)N4Cc5ccccc5C[C@H]4CN4CCOCC4)n4c3CCCC4)c3ccc(O)cc3)ccc21` [Example 42, 3-{5-Chloro-2-[((3S)-3-(4-morpholinylmethyl)-3,4-dihydro-2(1H)-isoquinolinyl)carbonyl]phenyl}-N-(4-hydroxyphenyl)-N-(1-methyl-1H-indazol-5-yl)-5,6,7,8-tetrahydro-1-indolizine carboxamide hydrochloride] are 13 nM and 53.6 nM.
With `Cn1ncc2cc(N(C(=O)c3cc(-c4cc(F)ccc4C(=O)N4Cc5ccccc5C[C@H]4CN4CCOCC4)n4c3CCCC4)c3ccc(O)cc3)ccc21` [Example 44, 3-{5-Fluoro-2-[((3S)-3-(4-morpholinylmethyl)-3,4-dihydro-2(1H)-isoquinolinyl)carbonyl]phenyl}-N-(4-hydroxyphenyl)-N-(1-methyl-1H-indazol-5-yl)-5,6,7,8-tetrahydro-1-indolizine carboxamide hydrochloride], the results for the IC50 (at Bcl-2 protein; in experiment [1]) were 14 nM and 45 nM, respectively.
In the same order, the values of `CN1CC2(CC2)c2cc(N(C(=O)c3cc(-c4cc(Cl)ccc4C(=O)N4Cc5ccccc5C[C@H]4CN4CCOCC4)n4c3CCCC4)c3ccc(O)cc3)ccc21` [Example 45, 3-{5-Chloro-2-[((3S)-3-(4-morpholinylmethyl)-3,4-dihydro-2(1H)-isoquinolinyl)carbonyl]phenyl}-N-(4-hydroxyphenyl)-N-(1′-methyl-1′,2′-dihydrospiro[cyclopropane-1,3′-indol]-5′-yl)-5,6,7,8-tetrahydro-1-indolizine carboxamide] are 47 nM and 76.8 nM.
Take `Cn1ccc2cc(N(C(=O)c3cc(-c4cc(Cl)ccc4C(=O)N4Cc5ccccc5C[C@H]4CN4CCCOCC4)n4c3CCCC4)c3ccc(O)cc3)ccc21` [Example 46, 3-{5-Chloro-2-[((3S)-3-(1,4-oxazepan-4-ylmethyl)-3,4-dihydro-2(1H)-isoquinolinyl)carbonyl]phenyl}-N-(4-hydroxyphenyl)-N-(1-methyl-1H-indol-5-yl)-5,6,7,8-tetrahydro-1-indolizine carboxamide hydrochloride]: the half-inhibitory concentration (IC50) on Bcl-2 protein came out at 21 nM; in experiment [1], 56.8 nM.
In the same order, the values of `Cn1ccc2cc(N(C(=O)c3cc(-c4cc(C(F)(F)F)ccc4C(=O)N4Cc5ccccc5C[C@H]4CN4CCOCC4)n4c3CCCC4)c3ccc(O)cc3)ccc21` [Example 47, N-(4-Hydroxyphenyl)-N-(1-methyl-1H-indol-5-yl)-3-[2-[((3S)-3-(4-morpholinylmethyl)-3,4-dihydro-2(1H)-isoquinolinyl)carbonyl]-5-(trifluoromethyl)-phenyl]-5,6,7,8-tetrahydro-1-indolizine carboxamide hydrochloride] are 58 nM and 194 nM.
In the same order, the values of `Cn1ccc2cc(N(C(=O)c3cc(-c4cc(OC(F)(F)F)ccc4C(=O)N4Cc5ccccc5C[C@H]4CN4CCOCC4)n4c3CCCC4)c3ccc(O)cc3)ccc21` [Example 48, N-(4-Hydroxyphenyl)-N-(1-methyl-1H-indol-5-yl)-3-[2-[((3S)-3-(4-morpholinylmethyl)-3,4-dihydro-2(1H)-isoquinolinyl)carbonyl]-5-(trifluoromethoxy)-phenyl]-5,6,7,8-tetrahydro-1-indolizine carboxamide hydrochloride] are 130 nM and 229 nM.
With `CN1CC(C)(C)c2cc(N(C(=O)c3cc(-c4cc(Cl)ccc4C(=O)N4Cc5ccccc5C[C@H]4CN4CCOCC4)n4c3CCCC4)c3ccc(O)cc3)ccc21` [Example 49, 3-{5-Chloro-2-[((3S)-3-(4-morpholinylmethyl)-3,4-dihydro-2(1H)-isoquinolinyl)carbonyl]phenyl}-N-(4-hydroxyphenyl)-N-(1,3,3-trimethyl-2,3-dihydro-1H-indol-5-yl)-5,6,7,8-tetrahydro-1-indolizine carboxamide], the figures for the IC50 (on Bcl-2 protein; in experiment [1]) were 45 nM and 169 nM, respectively.
In the same order, the values of `Cl.[2H]C1([2H])Oc2cc(C(=O)N3Cc4ccccc4C[C@H]3CN3CCOCC3)c(-c3cc(C(=O)N(c4ccc(O)cc4)c4ccc5c(cnn5C)c4)c4n3CCCC4)cc2O1` [Example 50, N-(4-Hydroxyphenyl)-N-(1-methyl-1H-indazol-5-yl)-3-{2,2-dideuterio-6-[((3S)-3-(4-morpholinylmethyl)-3,4-dihydro-2(1H)-isoquinolinyl)carbonyl]-1,3-benzodioxol-5-yl}-5,6,7,8-tetrahydro-1-indolizine carboxamide hydrochloride] are 13 nM and 4.01 nM.
Consider `Cl.[2H]C1([2H])Oc2cc(C(=O)N3Cc4ccccc4C[C@H]3CN3CCOCC3)c(-c3cc(C(=O)N(c4ccc(O)cc4)c4ccc(C)c(F)c4)c4n3CCCC4)cc2O1` [Example 51, N-(3-Fluoro-4-methylphenyl)-N-(4-hydroxyphenyl)-3-{2,2-dideuterio-6-[((3S)-3-(4-morpholinylmethyl)-3,4-dihydro-2(1H)-isoquinolinyl)carbonyl]-1,3-benzodioxol-5-yl}-5,6,7,8-tetrahydro-1-indolizine carboxamide hydrochloride], for which the IC50 is 32 nM at Bcl-2 protein and 26 nM in experiment [1].
On to `CN(C)C[C@@H]1Cc2ccccc2CN1C(=O)c1ccc(Cl)cc1-c1cc(C(=O)N(c2ccc(O)cc2)c2ccc3c(ccn3C)c2)c2n1CCCC2` [Example 52, 3-{5-Chloro-2-[((3S)-3-[(dimethylamino)methyl]-3,4-dihydro-2(1H)-isoquinolinyl)carbonyl]phenyl}-N-(4-hydroxyphenyl)-N-(1-methyl-1H-indol-5-yl)-5,6,7,8-tetrahydro-1-indolizine carboxamide hydrochloride], for which the concentration for half-maximal inhibition (IC50) at Bcl-2 protein was found to be 16 nM; in experiment [1], 19.8 nM.

What is called IC50 is the concentration needed to halve the response being measured.

The values are drawn from patent US9120791B2, “Indolizine compounds, a process for their preparation and pharmaceutical compositions containing them” (LES LABORATOIRES SERVIER, priority 2012, dated 2015).
